# Test results taken from the supplement of paper PMC10307832.
# How the values were obtained:
# Experiment in all cases: relative viability (nuclei count vs DMSO), 5 days (fraction); higher = more cells survive
# Bleomycin + Linsitinib = compound: CC1=C(N=C(N=C1N)[C@H](CC(=O)N)NC[C@@H](C(=O)N)N)C(=O)N[C@@H]([C@H](C2=CN=CN2)OC3C(C(C(C(O3)CO)O)O)OC4C(C(C(C(O4)CO)O)OC(=O)N)O)C(=O)N[C@H](C)[C@H]([C@H](C)C(=O)N[C@@H]([C@@H](C)O)C(=O)NCCC5=NC(=CS5)C6=NC(=CS6)C(=O)NCCC[S+](C)C)O [Bleomycin] + C[C@]1(O)C[C@@H](c2nc(-c3ccc4ccc(-c5ccccc5)nc4c3)c3c(N)nccn32)C1 [Linsitinib] (partner 1 µM); details: main component drawn
# In short: (§1)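 Relative viability equals treated-well nuclei counts divided by vehicle-well nuclei counts. Counts came from 4× images of lung cancer cell lines grown in 1536-well plates for 5 days after pin-tool dosing on the day after seeding. Dosing used one drug alone or a fixed anchor-drug dose plus five library-drug doses (not always all listed) in √10 steps, and values are medians of duplicate plates.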
# Etoposide + Palbociclib = compound: COc1cc([C@@H]2c3cc4c(cc3[C@@H](O[C@@H]3O[C@@H]5CO[C@@H](C)O[C@H]5[C@H](O)[C@H]3O)[C@H]3COC(=O)[C@H]23)OCO4)cc(OC)c1O [Etoposide] + CC(=O)c1c(C)c2cnc(Nc3ccc(N4CCNCC4)cn3)nc2n(C2CCCC2)c1=O [Palbociclib] (partner 0.5 µM)
# In short: as §1
# Etoposide + Decitabine = compound: COc1cc([C@@H]2c3cc4c(cc3[C@@H](O[C@@H]3O[C@@H]5CO[C@@H](C)O[C@H]5[C@H](O)[C@H]3O)[C@H]3COC(=O)[C@H]23)OCO4)cc(OC)c1O [Etoposide] + Nc1ncn([C@H]2C[C@H](O)[C@@H](CO)O2)c(=O)n1 [Decitabine] (partner 2 µM)
# In short: as §1
# Bleomycin + Crizotinib = compound: CC1=C(N=C(N=C1N)[C@H](CC(=O)N)NC[C@@H](C(=O)N)N)C(=O)N[C@@H]([C@H](C2=CN=CN2)OC3C(C(C(C(O3)CO)O)O)OC4C(C(C(C(O4)CO)O)OC(=O)N)O)C(=O)N[C@H](C)[C@H]([C@H](C)C(=O)N[C@@H]([C@@H](C)O)C(=O)NCCC5=NC(=CS5)C6=NC(=CS6)C(=O)NCCC[S+](C)C)O [Bleomycin] + C[C@@H](Oc1cc(-c2cnn(C3CCNCC3)c2)cnc1N)c1c(Cl)ccc(F)c1Cl [Crizotinib] (partner 1 µM); details: main component drawn
# In short: as §1
Cell Line,relative viability (Bleomycin + Linsitinib; first compound 0.01 µM),relative viability (Bleomycin + Linsitinib; first compound 0.03162 µM),relative viability (Bleomycin + Linsitinib; first compound 0.1 µM),relative viability (Bleomycin + Linsitinib; first compound 0.3162 µM),relative viability (Bleomycin + Linsitinib; first compound 1 µM),relative viability (Etoposide + Palbociclib; first compound 0.01 µM),relative viability (Etoposide + Palbociclib; first compound 0.03162 µM),relative viability (Etoposide + Palbociclib; first compound 0.1 µM),relative viability (Etoposide + Palbociclib; first compound 0.3162 µM),relative viability (Etoposide + Palbociclib; first compound 1 µM),relative viability (Etoposide + Decitabine; first compound 0.01 µM),relative viability (Etoposide + Decitabine; first compound 0.03162 µM),relative viability (Etoposide + Decitabine; first compound 0.1 µM),relative viability (Etoposide + Decitabine; first compound 0.3162 µM),relative viability (Etoposide + Decitabine; first compound 1 µM),relative viability (Bleomycin + Crizotinib; first compound 0.01 µM),relative viability (Bleomycin + Crizotinib; first compound 0.03162 µM),relative viability (Bleomycin + Crizotinib; first compound 0.1 µM),relative viability (Bleomycin + Crizotinib; first compound 0.3162 µM),relative viability (Bleomycin + Crizotinib; first compound 1 µM)
NCI-H1666,0.677,0.543,0.486,0.335,0.269,0.618,0.639,0.662,0.592,0.506,0.746,0.798,0.693,0.582,0.452,0.717,0.57,0.469,0.339,0.325
NCI-H1734,0.73,0.669,0.553,0.311,0.227,0.358,0.374,0.312,0.306,0.242,0.517,0.513,0.454,0.379,0.314,0.581,0.545,0.554,0.219,0.198
NCI-H1755,0.97,0.992,0.981,0.767,0.618,0.436,0.397,0.454,0.429,0.456,0.795,0.731,0.712,0.622,0.553,0.771,0.841,0.827,0.593,0.567
NCI-H1792,0.515,0.484,0.281,0.202,0.189,0.579,0.636,0.598,0.606,0.461,0.515,0.741,–,0.5,0.331,0.886,0.971,0.675,0.312,0.258
NCI-H1915,0.891,1.01,0.813,0.428,0.216,0.471,0.569,0.506,0.459,0.375,0.267,0.261,0.256,0.26,0.245,0.661,0.665,0.45,0.337,0.183
NCI-H1944,0.781,0.815,0.5,0.507,0.238,0.315,0.358,0.233,0.231,0.198,0.396,0.459,0.384,0.36,0.296,0.544,0.565,0.432,0.237,0.186
NCI-H1975,0.896,0.823,0.806,0.315,0.221,0.548,0.665,0.521,0.331,0.281,0.371,0.757,0.4,0.249,0.212,0.774,0.693,0.662,0.319,0.241
